Assay results published in paper PMC9253027, “Methyl probes in proteins for determining ligand binding mode in weak protein–ligand complexes” (Scientific Reports, 2022).

Target: T1, EcDsbA (DsbA, oxidized) (Escherichia coli, UniProt P0AEG4)
T1 construct: 21 kDa oxidized EcDsbA
Assay: X-ray crystal structure ([…] Å, soaking), intermolecular NOEs/NMR2, KD from HSQC chemical shift perturbation titration
Assay type: binding

T1 sequence (P0AEG4 20-208): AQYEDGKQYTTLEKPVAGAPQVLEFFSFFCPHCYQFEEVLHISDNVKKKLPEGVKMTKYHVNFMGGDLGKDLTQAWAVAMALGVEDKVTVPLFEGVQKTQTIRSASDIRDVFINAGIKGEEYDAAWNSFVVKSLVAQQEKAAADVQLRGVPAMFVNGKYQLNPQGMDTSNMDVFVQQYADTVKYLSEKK

O=C(O)c1sc(CCCc2ccccc2)nc1-c1ccccc1 [compound 1, phenylthiazole 1]
Kd: ~900 µM
